Experimental data reported in US9868722B2, “Monocyclic pyrimidine/pyridine compounds as inhibitors of P97 complex” (Cleave Biosciences, Inc., priority 2013, dated 2018).
Where a name gives a salt, the structure may show the parent alone. Read-outs that look alike come from different tables or passages of the source.

Columns and labels:
p97 = p97 (Homo sapiens, UniProt P55072); test: P97 ATPase biochemical assay (ADP Glo)
Description: The ATPase assay is performed according the following protocol: Purified enzyme (20 nM p97), substrate (20 μM ATP) and a dose titration of compounds are mixed in buffer (50 mM TRIS pH 7.5, 20 mM MgCl2, 0.02% TX-100, 1 mM DTT, 0.2% (v/v) glycerol) and incubated at 37° C. for 15 minutes. The reaction is terminated and the level of product generated is measured using the ADP Glo Assay Kit (Promega, Madison Wis.). Plotting product generated versus compound concentration and using a four-parameter fit model generates an IC50 value for each compounds.
The p97 assay is an initial screening assay used to determine inhibitory activity of the monocyclic pyrimidine compounds of the invention against the p97 complex. As discussed above, inhibition of activity of the p97 proteosome complex can enable apoptosis and cause elimination of neoplastic cells (cancer cells). The method follows that of Christianson in Nat. Cell Biol., (2011) 14:93.
Assay Buffer is a mixture of 50 mM TRIS pH 7.5, 20 mM MgCl2, 0.02% TX-100, 1 mM DTT and 0.2% (v/v) Glycerol. The well plate is Platetype: Corning 3674, 384w plate. The identification kit is an ADP glo kit (Promega): stop buffer, detection reagent.
Serial dilute compound in DMSO in a 1:3.33-fold 10 point serial dilution.
0.5 μL compound serial diluted in DMSO (Final Conc. 10%)
2 μL ATP (Final Conc.=20 uM, diluted in assay buffer)
2.5 μL p97 (Final Conc.=20 nM, diluted in assay buffer)
Incubate at 37 degC for 15 min.
Add 5 μL of stop buffer, incubate at RT for 40 min.
Add 10 μL of detection reagent, incubate at RT for 30 min.
Read luminescence on Envision plate reader. • Upon obtaining the data from the luminescence reading, the data may be analyzed as follows:
Normalize luminescence data using no enzyme (full inhibition) and no compound (no inhibition) controls. Plot normalized luminescence data against log-transformed concentration values and fit to a sigmoidal curve to determine IC50 values (done in Collaborative Drug Discovery software).
The results are reported on the following Table for Examples A-EE and the E1-E4 compounds as 50 percent Inhibitory concentration at candidate doses of less than 30 nM, less than 100 nM, less than 300 nM and less than 1000 nM for the p97 inhibition assay.

A549 cells = test: Cultured cancer cell viability assay (cell titer glo, A549 CTG); assay type: cell-based; conditions: Homo sapiens
Text: Anti-tumor effects are monitored in cultured cancer cells after several days of compound treatment. The cell titer glo assay (Promega) measures the amount of ATP present as a proxy for cellular viability. Cellular counting is done using high-content microscopy followed by image analysis. A hanging drop 3D-culture system (3D Biomatrix) is used followed by cell titer glo to measure growth in a tumor-like environment.
The cellular assay provides information about the anti-neoplastic activity of the compounds of the invention. The compounds are tested against cultured cancer cells to determine whether or not the compounds of the invention are capable of intersecting with cancer cells to minimize or eliminate such cells. The assay involves establishing colonies of such cells and then treating them with the test compound under specified conditions and analysis regime to determine results.
(§1) Plate 25 μL of A549 cells in every well of 384-well plate using multidrop.
One (1) white plate for viability at 500 cells/well.
Serial dilute compounds with a 10 point 2-fold serial dilution in DMSO to make 250× stock compound solution
Dilute compounds 1:125 in cell culture media to make a 2× solution Add 25 μl of dilution compounds to cell plates in well duplicates
Put cells back in incubator (6 hr incubation for black plates, 72 hr incubation for white plates).
Thaw an aliquot of frozen cell titer glo (Promega G7572) at room temperature.
Add 45 mL of NaCl/PBS solution to 5 ml of cell titer glo (10×).
Remove white plates from incubator, leave at room temp for 30 minutes.
Add 25 μl of diluted cell titer glo to each well.
Shake plate for >1 minute.
Incubate plate for >5 minutes to stabilize luminescence. • Luminescence is stable for up to 3 hours.
Read luminescence on plate reader
The results are reported on the following Table I for Examples A-EE and the E1-E4 compounds as 50 percent Inhibitory concentration at candidate doses of less than 1 μM, less than 3 μM and less than 10 μM for both of the K48 antibody and the p53 (CTG) antibody assays

[1] = tested on: K48 poly-Ubiquitin accumulation in A549 cells; test: A549 K48 poly-ubiquitin accumulation immunofluorescence assay; assay type: cell-based; conditions: Homo sapiens
Description: Image-analysis is used to generate quantitative data from these assays that can be fit to a four-parameter sigmoid curve to derive IC50 values. Substrates of the ubiquitin-proteasome system, such as p53, are monitored after tumor cell lines are incubated with compounds for several hours. Accumulation of these proteins indicates an inhibition of proteasome-mediated degradation. Accumulation of lysine-48 chain linkage of poly-ubiquitin is also monitored by immunofluorescence as an indicator of ubiquitin-proteasome system inhibition. Both LC3 and SQSTM1 are mediators of autophagy. The localization and amounts of these proteins are monitored by immunofluorescence and report on the activity and inhibition of autophagy in response to p97 inhibition.
as §1
Two (2) black plates for IF at 2500 cells/well
Serial dilute compounds with a 10 point 2-fold serial dilution in DMSO to make 250× stock compound solution Dilute compounds 1:125 in cell culture media to make a 2× solution Add 25 μl of dilution compounds to cell plates in well duplicates Put cells back in incubator (6 hr incubation for black plates, 72 hr incubation for white plates).
Incubate cells in black plates with compound at 37 degC for 6 hrs. add 15 μL of 16% Paraformaldehyde (PFA) directly into media of each well, incubate at room temp for 5 min, flick plate and wash in 50 μL of PBS block in 50 μL of Blocking Buffer for 30 minutes (can go up to several hours) Blocking buffer: 1×PBS, 1% BSA, 0.3% Triton-X100, Hoechst (1:10,000) incubate in 25 μL of primary antibody in blocking buffer at 4 degC over night […]
Secondary Antibodies: • AlexaFluor488 Goat anti-Rabbit 1:2,000 (Life Tech A11008) • AlexaFluor555 Goat anti-Mouse 1:2,000 (Life Tech A21422) incubate in 25 μl of secondary antibody (1:2,000) in blocking buffer for 1-2 hrs at room temp (alexafluor488-anti-Rabbit/alexafluor555-anti-Mouse) Image plates in high content microscope with 405 nm, 488 nm and 555 nm filters Nuclear counts and cellular intensities of each markers are measured using Hoechst as a nuclear marker with an automated image analysis protocol using Matlab software (Math Works) The results are reported on the following Table I for Examples A-EE and the E1-E4 compounds as 50 percent Inhibitory concentration at candidate doses of less than 1 μM, less than 3 μM and less than 10 μM for both of the K48 antibody and the p53 (CTG) antibody assays

[2] = 20 nM p97, 20 uM ATP, 37 degC 15 min
[3] = A549, Table II, preliminary assays, read-out: Cell Titre Glow Assay IC50
[4] = A549 cells, 72 hr incubation, cell titer glo, read-out: A549 CTG IC50
[5] = A549, Table II, preliminary assays, read-out: K48 poly-Ubiquitin Accumulation
[6] = A549 cells, 6 hr incubation, K48-Ub antibody, read-out: A549 K48 IC50

Sequence of p97 (P55072 whole entry): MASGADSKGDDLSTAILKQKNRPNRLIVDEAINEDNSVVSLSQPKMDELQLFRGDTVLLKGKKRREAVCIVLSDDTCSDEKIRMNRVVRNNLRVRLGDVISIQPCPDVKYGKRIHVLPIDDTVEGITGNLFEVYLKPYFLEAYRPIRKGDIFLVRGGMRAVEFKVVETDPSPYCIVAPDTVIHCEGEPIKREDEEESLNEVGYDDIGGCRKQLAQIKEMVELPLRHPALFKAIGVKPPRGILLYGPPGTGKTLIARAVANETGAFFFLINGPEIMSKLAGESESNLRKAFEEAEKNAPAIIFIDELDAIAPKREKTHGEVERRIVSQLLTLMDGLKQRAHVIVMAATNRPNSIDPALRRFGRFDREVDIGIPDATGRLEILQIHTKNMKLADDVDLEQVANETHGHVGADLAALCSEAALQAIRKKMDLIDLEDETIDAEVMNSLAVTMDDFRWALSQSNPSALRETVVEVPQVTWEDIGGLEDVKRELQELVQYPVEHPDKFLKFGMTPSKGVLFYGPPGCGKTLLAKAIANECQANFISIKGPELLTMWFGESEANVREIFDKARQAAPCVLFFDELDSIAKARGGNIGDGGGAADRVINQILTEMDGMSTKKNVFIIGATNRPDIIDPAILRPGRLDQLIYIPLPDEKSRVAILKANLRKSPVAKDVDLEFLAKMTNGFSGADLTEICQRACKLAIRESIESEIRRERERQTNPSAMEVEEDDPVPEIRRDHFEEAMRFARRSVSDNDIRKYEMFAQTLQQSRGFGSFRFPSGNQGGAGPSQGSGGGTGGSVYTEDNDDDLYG

Compound	IC50 (p97; [2])	IC50 (p97; Table II, preliminary assays)	IC50 (A549 cells; [3])	IC50 (A549 cells; [4])	IC50 [1, 5]	IC50 [1, 6]
Cc1cc(NCc2ccccc2)nc(-n2c(C)cc3c(C(N)=O)cccc32)n1 [Example 1, 1-[4-(benzylamino)-6-methylpyrimidin-2-yl]-2-methyl-1H-indole-4-carboxamide]	< 0.1 µM	0.042 µM	2.01 µM	< 3 µM	3 µM	< 10 µM
Cc1cnc(-n2c(C)cc3c(C(N)=O)cccc32)nc1NCc1ccccc1 [Example 2, 1-[4-(benzylamino)-5-methylpyrimidin-2-yl]-2-methyl-1H-indole-4-carboxamide]	< 0.03 µM	0.022 µM	0.97 µM	< 1 µM	1.6 µM	< 3 µM
COc1cnc(-n2c(C)cc3c(C(N)=O)cccc32)nc1NCc1ccccc1 [Example 3, 1-[4-(benzylamino)-5-methoxypyrimidin-2-yl]-2-methyl-1H-indole-4-carboxamide]	< 0.03 µM	0.007 µM	0.467 µM	< 1 µM	0.89 µM	< 1 µM
Cc1cc2c(C(N)=O)cccc2n1-c1ncc(C(F)(F)F)c(NCc2ccccc2)n1 [Example 4, 1-[4-(benzylamino)-5-(trifluoromethyl)pyrimidin-2-yl]-2-methyl-1H-indole-4-carboxamide]	< 0.03 µM	–	–	< 3 µM	–	< 3 µM
Cc1cc2c(C(N)=O)cccc2n1-c1ncc(Cl)c(NCc2ccccc2)n1 [Example 5, 1-[4-(benzylamino)-5-chloropyrimidin-2-yl]-2-methyl-1H-indole-4-carboxamide]	< 0.03 µM	0.012 µM	1.79 µM	< 3 µM	1.4 µM	< 3 µM
CCc1cnc(-n2c(C)cc3c(C(N)=O)cccc32)nc1NCc1ccccc1 [Example 6, 1-[4-(benzylamino)-5-ethylpyrimidin-2-yl]-2-methyl-1H-indole-4-carboxamide]	< 0.03 µM	–	–	< 1 µM	–	< 1 µM
COc1c(C)nc(-n2c(C)cc3c(C(N)=O)cccc32)nc1NCc1ccccc1 [Example 7, 1-[4-(benzylamino)-5-methoxy-6-methylpyrimidin-2-yl]-2-methyl-1H-indole-4-carboxamide]	< 0.03 µM	–	–	< 3 µM	–	< 3 µM
Cc1nc(-n2c(C)cc3c(C(N)=O)cccc32)nc(NCc2ccccc2)c1C(C)C [Example 8, 1-[4-(benzylamino)-6-methyl-5-(propan-2-yl)pyrimidin-2-yl]-2-methyl-1H-indole-4-carboxamide]	< 0.03 µM	–	–	< 3 µM	–	< 1 µM
Cc1c(NCc2ccccc2)nc(-n2c(C)cc3c(C(N)=O)cccc32)nc1C(F)(F)F [Example 9, 1-[4-(benzylamino)-5-methyl-6-(trifluoromethyl)pyrimidin-2-yl]-2-methyl-1H-indole-4-carboxamide]	< 0.03 µM	–	–	< 3 µM	–	< 3 µM
Cc1cc2c(C(N)=O)cccc2n1-c1ncc(C(N)=O)c(NCc2ccccc2)n1 [Example 10, 1-[4-(benzylamino)-5-carbamoylpyrimidin-2-yl]-2-methyl-1H-indole-4-carboxamide]	< 0.1 µM	–	–	< 10 µM	–	< 10 µM
Cc1cc2c(C(N)=O)cccc2n1-c1ncc(N)c(NCc2ccccc2)n1 [Example 17, 1-[5-amino-4-(benzylamino)pyrimidin-2-yl]-2-methyl-1H-indole-4-carboxamide]	< 1 µM	–	–	–	–	–
Cc1cc2c(C(N)=O)cccc2n1-c1ncc(CN(C)C)c(NCc2ccccc2)n1 [Example 21, 1-[4-(benzylamino)-5-[(dimethylamino)methyl]pyrimidin-2-yl]-2-methyl-1H-indole-4-carboxamide]	< 1 µM	–	–	–	–	–
Cc1cc2c(C(N)=O)cccc2n1-c1ncc(CN)c(NCc2ccccc2)n1 [Example 22, 1-[5-(aminomethyl)-4-(benzylamino)pyrimidin-2-yl]-2-methyl-1H-indole-4-carboxamide]	< 0.3 µM	–	–	–	–	–
CNCc1cnc(-n2c(C)cc3c(C(N)=O)cccc32)nc1NCc1ccccc1 [Example 23, 1-[4-(benzylamino)-5-[(methylaminoc)methyl]pyrimidin-2-yl]-2-methyl-1H-indole-4-carboxamide]	< 1 µM	–	–	–	–	–
Cc1cc2c(C(N)=O)cccc2n1-c1ncc(OCCN)c(NCc2ccccc2)n1 [Example 25, 1-[5-(2-aminoethoxy)-4-(benzylamino)pyrimidin-2-yl]-2-methyl-1H-indole-4-carboxamide]	< 1 µM	–	–	–	–	–
Cc1cnc(-n2c(CN)cc3c(C(N)=O)cccc32)nc1NCc1ccccc1 [Example 31, 2-(aminomethyl)-1-[4-(benzylamino)-5-methylpyrimidin-2-yl]-1H-indole-4-carboxamide Hydrochloride]	< 1 µM	–	–	–	–	–
CCc1cnc(-n2c(CN)cc3c(C(N)=O)cccc32)nc1NCc1ccccc1 [Example 32, 2-(aminomethyl)-1-[4-(benzylamino)-5-ethylpyrimidin-2-yl]-1H-indole-4-carboxamide]	< 0.3 µM	–	–	–	–	–
Cc1cc2c(CN)cccc2n1-c1ncc(C(C)C)c(NCc2ccccc2)n1 [Example 39, 2-[4-(aminomethyl)-2-methyl-1H-indol-1-yl]-N-benzyl-5-(propan-2-yl)pyrimidin-4-amine]	< 1 µM	–	–	–	–	–
